We go through one compound from PMC7486443, “Generation of Phenothiazine with Potent Anti-TLK1 Activity for Prostate Cancer Therapy” (iScience, 2020).

One experiment concerns the target PRKG1 (Homo sapiens, UniProt Q13976). In words: biochemical. More on the design: DiscoverX KINOMEscan scanMAX competition binding panel, single concentration, percent of control; remaining binding: dose or concentration left out as unconfirmed. To be noted: KINOMEscan binding, percent of control; read-out: Table S4_SCANMAX REPORT - related to Fig. 1 / Percent Control. From the text: (§1) Certain PTH are potent inhibitors of TLK1 ([Ronald et al., 2013]), and by inference TLK2, as these proteins must homo- and hetero-dimerize for full activation ([Mortuza et al., 2018]), in addition to being highly similar in sequence and structure, and thus similarly targetable. […] Two noteworthy observations are that PTHs are structurally different from many known ATP competitive inhibitors, and that J54 was carefully designed based on considerations reported previously for the THD—the Kinomescan has confirmed that J54 is specific to TLKs. We should point out that although PTH were the first reported inhibitors of TLKs ([Ronald et al., 2013]), other inhibitors particularly of TLK2 have since been reported ([Kim et al., 2016]), some based on structure docking ([Mortuza et al., 2018]), although neither their potency and effects in vivo nor their potential off-target effects have not been reported as they were selected from libraries of kinase inhibitors. Supplementary file mmc2.xlsx: Table S4. SCANMAX Table, Related to Figure 1 Kinomescan of J54 inhibitory activity on human kinases.

The next experiment addresses BMX (Homo sapiens, UniProt P51813). Kind of experiment: biochemical. More on the design: DiscoverX KINOMEscan scanMAX competition binding panel, single concentration, percent of control; remaining binding: dose or concentration left out as unconfirmed. Particulars: KINOMEscan binding, percent of control; read-out: Table S4_SCANMAX REPORT - related to Fig. 1 / Percent Control.
Source text: as §1

The target of a further experiment is EPHB1 (Homo sapiens, UniProt P54762). In words: biochemical. More on the design: DiscoverX KINOMEscan scanMAX competition binding panel, single concentration, percent of control; remaining binding: dose or concentration left out as unconfirmed. To be noted: KINOMEscan binding, percent of control; read-out: Table S4_SCANMAX REPORT - related to Fig. 1 / Percent Control.
Source text: as §1

The target of another experiment is TLK2 (Homo sapiens, UniProt Q86UE8). Kind of experiment: biochemical. More on the design: DiscoverX KINOMEscan scanMAX competition binding panel, single concentration, percent of control; remaining binding: dose or concentration left out as unconfirmed. To be noted: KINOMEscan binding, percent of control; read-out: Table S4_SCANMAX REPORT - related to Fig. 1 / Percent Control.
Source text: as §1

The target of a further experiment is DAPK2 (Homo sapiens, UniProt Q9UIK4). In words: biochemical. More on the design: DiscoverX KINOMEscan scanMAX competition binding panel, single concentration, percent of control; remaining binding: dose or concentration left out as unconfirmed. To be noted: KINOMEscan binding, percent of control; read-out: Table S4_SCANMAX REPORT - related to Fig. 1 / Percent Control.
Source text: as §1

For a further experiment, the target named is T1, JNK1 (Homo sapiens, UniProt P45983).
T1 construct: gene MAPK8
Kind of experiment: biochemical. More on the design: DiscoverX KINOMEscan scanMAX competition binding panel, single concentration, percent of control; remaining binding: dose or concentration left out as unconfirmed. Particulars: KINOMEscan binding, percent of control; read-out: Table S4_SCANMAX REPORT - related to Fig. 1 / Percent Control.
Source text: as §1

The target in a further experiment is ULK3 (Homo sapiens, UniProt Q6PHR2). Kind of experiment: biochemical. More on the design: DiscoverX KINOMEscan scanMAX competition binding panel, single concentration, percent of control; remaining binding: dose or concentration left out as unconfirmed. Particulars: KINOMEscan binding, percent of control; read-out: Table S4_SCANMAX REPORT - related to Fig. 1 / Percent Control.
Source text: as §1

The next experiment has as its target T2, NDR1 (Homo sapiens, UniProt Q15208).
T2 construct: gene STK38
In words: biochemical. More on the design: DiscoverX KINOMEscan scanMAX competition binding panel, single concentration, percent of control; remaining binding: dose or concentration left out as unconfirmed. Particulars: KINOMEscan binding, percent of control; read-out: Table S4_SCANMAX REPORT - related to Fig. 1 / Percent Control.
Source text: as §1

In the next experiment the target is DDR2 (Homo sapiens, UniProt Q16832). Kind of experiment: biochemical. More on the design: DiscoverX KINOMEscan scanMAX competition binding panel, single concentration, percent of control; remaining binding: dose or concentration left out as unconfirmed. Particulars: KINOMEscan binding, percent of control; read-out: Table S4_SCANMAX REPORT - related to Fig. 1 / Percent Control.
Source text: as §1

Another experiment has as its target HIPK2 (Homo sapiens, UniProt Q9H2X6). Kind of experiment: biochemical. More on the design: DiscoverX KINOMEscan scanMAX competition binding panel, single concentration, percent of control; remaining binding: dose or concentration left out as unconfirmed. To be noted: KINOMEscan binding, percent of control; read-out: Table S4_SCANMAX REPORT - related to Fig. 1 / Percent Control.
Source text: as §1

The next experiment has as its target T3, FAK (Homo sapiens, UniProt Q05397).
T3 construct: gene PTK2
In words: biochemical. More on the design: DiscoverX KINOMEscan scanMAX competition binding panel, single concentration, percent of control; remaining binding: dose or concentration left out as unconfirmed. Particulars: KINOMEscan binding, percent of control; read-out: Table S4_SCANMAX REPORT - related to Fig. 1 / Percent Control.
Source text: as §1

For the next experiment, the target named is PIK3CA(M1043I) (Homo sapiens, UniProt P42336, M1043I). In words: biochemical. More on the design: DiscoverX KINOMEscan scanMAX competition binding panel, single concentration, percent of control; remaining binding: dose or concentration left out as unconfirmed. To be noted: KINOMEscan binding, percent of control; read-out: Table S4_SCANMAX REPORT - related to Fig. 1 / Percent Control.
Source text: as §1

The next experiment has as its target PIK3C2B (Homo sapiens, UniProt O00750). In words: biochemical. More on the design: DiscoverX KINOMEscan scanMAX competition binding panel, single concentration, percent of control; remaining binding: dose or concentration left out as unconfirmed. To be noted: KINOMEscan binding, percent of control; read-out: Table S4_SCANMAX REPORT - related to Fig. 1 / Percent Control.
Source text: as §1

In another experiment the target is IRAK4 (Homo sapiens, UniProt Q9NWZ3). In words: biochemical. More on the design: DiscoverX KINOMEscan scanMAX competition binding panel, single concentration, percent of control; remaining binding: dose or concentration left out as unconfirmed. Particulars: KINOMEscan binding, percent of control; read-out: Table S4_SCANMAX REPORT - related to Fig. 1 / Percent Control.
Source text: as §1

For another experiment, the target named is PRKCI (Homo sapiens, UniProt P41743). In words: biochemical. More on the design: DiscoverX KINOMEscan scanMAX competition binding panel, single concentration, percent of control; remaining binding: dose or concentration left out as unconfirmed. Particulars: KINOMEscan binding, percent of control; read-out: Table S4_SCANMAX REPORT - related to Fig. 1 / Percent Control.
Source text: as §1

Another experiment addresses STK33 (Homo sapiens, UniProt Q9BYT3). In words: biochemical. More on the design: DiscoverX KINOMEscan scanMAX competition binding panel, single concentration, percent of control; dose or concentration left out as unconfirmed. Particulars: KINOMEscan binding, percent of control; read-out: Table S4_SCANMAX REPORT - related to Fig. 1 / Percent Control.
Source text: as §1

The next experiment deals with LTK (Homo sapiens, UniProt P29376). In words: biochemical. More on the design: DiscoverX KINOMEscan scanMAX competition binding panel, single concentration, percent of control; dose or concentration left out as unconfirmed. To be noted: KINOMEscan binding, percent of control; read-out: Table S4_SCANMAX REPORT - related to Fig. 1 / Percent Control.
Source text: as §1

A further experiment concerns the target DYRK1B (Homo sapiens, UniProt Q9Y463). In words: biochemical. More on the design: DiscoverX KINOMEscan scanMAX competition binding panel, single concentration, percent of control; dose or concentration left out as unconfirmed. Particulars: KINOMEscan binding, percent of control; read-out: Table S4_SCANMAX REPORT - related to Fig. 1 / Percent Control.
Source text: as §1

In a further experiment the target is TTK (Homo sapiens, UniProt P33981). In words: Kinomescan SCANMAX panel at […]. Type of experiment: binding.

T3 sequence (Q05397 whole entry): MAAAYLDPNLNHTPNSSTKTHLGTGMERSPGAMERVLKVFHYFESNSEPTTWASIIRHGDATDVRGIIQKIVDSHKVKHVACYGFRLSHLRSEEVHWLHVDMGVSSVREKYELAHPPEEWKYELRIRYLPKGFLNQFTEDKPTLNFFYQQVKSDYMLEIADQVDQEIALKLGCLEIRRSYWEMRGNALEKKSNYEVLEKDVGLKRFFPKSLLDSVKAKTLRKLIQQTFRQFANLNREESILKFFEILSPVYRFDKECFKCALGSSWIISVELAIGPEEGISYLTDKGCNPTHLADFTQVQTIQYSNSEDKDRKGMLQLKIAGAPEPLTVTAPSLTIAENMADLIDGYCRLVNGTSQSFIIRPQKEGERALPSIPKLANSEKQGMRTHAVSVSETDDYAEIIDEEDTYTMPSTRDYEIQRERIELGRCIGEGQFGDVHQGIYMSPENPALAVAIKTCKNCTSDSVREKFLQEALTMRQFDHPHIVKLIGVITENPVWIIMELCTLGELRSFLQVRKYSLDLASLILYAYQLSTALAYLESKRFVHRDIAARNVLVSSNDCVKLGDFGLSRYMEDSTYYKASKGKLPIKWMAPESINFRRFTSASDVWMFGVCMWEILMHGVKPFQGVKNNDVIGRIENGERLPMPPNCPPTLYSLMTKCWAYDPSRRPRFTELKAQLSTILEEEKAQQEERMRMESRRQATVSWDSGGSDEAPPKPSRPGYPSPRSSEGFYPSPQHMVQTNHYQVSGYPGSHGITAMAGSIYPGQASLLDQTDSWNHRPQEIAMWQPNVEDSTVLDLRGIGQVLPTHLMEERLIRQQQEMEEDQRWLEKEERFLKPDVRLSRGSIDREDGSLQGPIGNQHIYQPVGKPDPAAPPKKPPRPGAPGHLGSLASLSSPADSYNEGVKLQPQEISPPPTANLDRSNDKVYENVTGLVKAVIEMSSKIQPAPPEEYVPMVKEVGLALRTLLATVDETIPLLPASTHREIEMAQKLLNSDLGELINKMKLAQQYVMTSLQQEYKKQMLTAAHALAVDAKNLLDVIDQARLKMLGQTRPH
Chain of TLK2 (Q86UE8 whole entry): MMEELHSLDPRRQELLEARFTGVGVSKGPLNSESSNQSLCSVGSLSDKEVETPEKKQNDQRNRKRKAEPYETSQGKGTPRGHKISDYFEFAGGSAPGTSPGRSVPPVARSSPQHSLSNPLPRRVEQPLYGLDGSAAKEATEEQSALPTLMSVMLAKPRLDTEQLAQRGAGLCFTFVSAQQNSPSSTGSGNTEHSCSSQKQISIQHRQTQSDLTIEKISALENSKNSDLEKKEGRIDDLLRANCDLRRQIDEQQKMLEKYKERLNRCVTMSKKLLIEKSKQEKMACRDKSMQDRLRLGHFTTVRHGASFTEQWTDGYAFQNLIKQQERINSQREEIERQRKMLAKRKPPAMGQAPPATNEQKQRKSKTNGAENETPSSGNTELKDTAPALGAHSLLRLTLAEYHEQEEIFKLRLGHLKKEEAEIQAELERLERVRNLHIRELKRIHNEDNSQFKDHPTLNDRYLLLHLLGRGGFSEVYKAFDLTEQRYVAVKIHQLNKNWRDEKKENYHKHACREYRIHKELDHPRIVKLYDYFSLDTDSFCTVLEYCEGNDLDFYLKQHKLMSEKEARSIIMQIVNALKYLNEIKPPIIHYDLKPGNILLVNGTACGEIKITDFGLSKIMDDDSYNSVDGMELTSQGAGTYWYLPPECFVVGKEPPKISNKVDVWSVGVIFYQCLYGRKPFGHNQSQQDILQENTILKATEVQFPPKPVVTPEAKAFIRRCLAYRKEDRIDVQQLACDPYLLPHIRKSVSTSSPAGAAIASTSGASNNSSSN
Chain of DDR2 (Q16832 whole entry): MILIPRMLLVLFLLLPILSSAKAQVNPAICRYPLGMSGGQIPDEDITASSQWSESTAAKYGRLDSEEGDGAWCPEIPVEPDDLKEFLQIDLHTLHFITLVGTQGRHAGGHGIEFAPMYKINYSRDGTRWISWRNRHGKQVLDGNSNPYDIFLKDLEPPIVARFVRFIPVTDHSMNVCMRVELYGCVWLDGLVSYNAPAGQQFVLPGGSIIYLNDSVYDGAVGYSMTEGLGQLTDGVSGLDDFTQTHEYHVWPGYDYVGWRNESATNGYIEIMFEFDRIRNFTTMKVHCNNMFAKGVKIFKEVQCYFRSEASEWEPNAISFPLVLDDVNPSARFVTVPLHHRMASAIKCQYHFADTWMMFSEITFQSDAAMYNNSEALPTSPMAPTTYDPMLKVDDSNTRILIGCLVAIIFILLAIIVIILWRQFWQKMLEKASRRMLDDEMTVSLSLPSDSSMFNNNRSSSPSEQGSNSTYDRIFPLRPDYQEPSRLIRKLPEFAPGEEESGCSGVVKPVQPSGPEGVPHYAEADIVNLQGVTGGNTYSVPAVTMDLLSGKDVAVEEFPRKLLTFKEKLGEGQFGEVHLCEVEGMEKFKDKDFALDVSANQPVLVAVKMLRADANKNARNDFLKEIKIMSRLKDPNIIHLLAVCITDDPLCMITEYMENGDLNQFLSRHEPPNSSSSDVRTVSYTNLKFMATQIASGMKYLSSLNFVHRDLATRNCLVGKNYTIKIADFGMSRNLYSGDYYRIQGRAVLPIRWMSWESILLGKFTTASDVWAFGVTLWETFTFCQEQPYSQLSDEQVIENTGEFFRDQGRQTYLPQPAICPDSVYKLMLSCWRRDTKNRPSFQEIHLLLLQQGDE
Chain of BMX (P51813 whole entry): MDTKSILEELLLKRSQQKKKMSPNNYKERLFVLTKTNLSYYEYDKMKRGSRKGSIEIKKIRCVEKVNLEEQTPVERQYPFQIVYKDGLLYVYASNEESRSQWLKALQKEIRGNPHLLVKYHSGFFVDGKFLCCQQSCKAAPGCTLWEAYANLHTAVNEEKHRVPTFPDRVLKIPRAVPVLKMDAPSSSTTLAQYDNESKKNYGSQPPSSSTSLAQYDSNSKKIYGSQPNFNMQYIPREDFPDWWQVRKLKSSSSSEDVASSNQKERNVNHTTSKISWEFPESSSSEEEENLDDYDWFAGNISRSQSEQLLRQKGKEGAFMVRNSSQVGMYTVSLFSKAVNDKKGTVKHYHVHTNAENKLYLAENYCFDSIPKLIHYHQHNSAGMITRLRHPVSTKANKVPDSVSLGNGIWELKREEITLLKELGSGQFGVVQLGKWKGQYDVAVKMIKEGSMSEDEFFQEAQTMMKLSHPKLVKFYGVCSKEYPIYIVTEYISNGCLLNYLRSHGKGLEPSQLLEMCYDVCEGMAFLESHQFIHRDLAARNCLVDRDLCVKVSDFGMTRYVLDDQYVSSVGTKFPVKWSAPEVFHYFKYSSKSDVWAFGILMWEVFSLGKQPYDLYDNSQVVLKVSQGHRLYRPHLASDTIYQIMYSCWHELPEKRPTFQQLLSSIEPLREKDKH
Chain of STK33 (Q9BYT3 whole entry): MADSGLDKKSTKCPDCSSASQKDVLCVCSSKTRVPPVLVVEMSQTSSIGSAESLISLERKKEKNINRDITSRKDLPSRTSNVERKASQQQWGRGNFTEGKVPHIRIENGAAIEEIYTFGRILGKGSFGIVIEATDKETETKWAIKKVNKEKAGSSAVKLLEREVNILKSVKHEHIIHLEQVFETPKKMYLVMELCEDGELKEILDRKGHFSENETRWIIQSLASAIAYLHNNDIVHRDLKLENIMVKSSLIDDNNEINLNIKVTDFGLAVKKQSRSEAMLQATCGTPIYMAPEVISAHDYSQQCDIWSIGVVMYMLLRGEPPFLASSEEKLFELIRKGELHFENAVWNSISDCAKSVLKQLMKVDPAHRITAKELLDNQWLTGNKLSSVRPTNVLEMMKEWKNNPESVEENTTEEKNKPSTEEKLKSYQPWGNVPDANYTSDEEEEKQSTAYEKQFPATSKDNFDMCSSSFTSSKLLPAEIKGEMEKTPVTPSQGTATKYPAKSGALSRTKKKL
Chain of DYRK1B (Q9Y463 whole entry): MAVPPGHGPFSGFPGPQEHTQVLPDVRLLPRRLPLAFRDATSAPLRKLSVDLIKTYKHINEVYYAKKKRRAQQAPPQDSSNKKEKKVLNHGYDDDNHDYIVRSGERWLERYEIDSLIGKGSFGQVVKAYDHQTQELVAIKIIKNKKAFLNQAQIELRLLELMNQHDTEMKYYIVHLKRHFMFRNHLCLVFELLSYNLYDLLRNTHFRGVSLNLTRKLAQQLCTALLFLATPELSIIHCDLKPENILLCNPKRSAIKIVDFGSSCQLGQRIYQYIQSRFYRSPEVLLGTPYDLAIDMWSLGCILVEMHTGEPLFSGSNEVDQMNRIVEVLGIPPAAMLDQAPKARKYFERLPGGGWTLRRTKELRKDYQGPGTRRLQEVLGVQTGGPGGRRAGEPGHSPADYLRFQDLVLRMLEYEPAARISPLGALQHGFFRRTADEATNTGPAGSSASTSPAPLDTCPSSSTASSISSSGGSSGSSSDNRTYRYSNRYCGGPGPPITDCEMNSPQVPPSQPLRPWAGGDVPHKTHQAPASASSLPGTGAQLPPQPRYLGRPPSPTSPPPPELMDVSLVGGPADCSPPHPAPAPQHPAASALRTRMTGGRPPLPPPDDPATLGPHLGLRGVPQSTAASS
T2 sequence (Q15208 whole entry): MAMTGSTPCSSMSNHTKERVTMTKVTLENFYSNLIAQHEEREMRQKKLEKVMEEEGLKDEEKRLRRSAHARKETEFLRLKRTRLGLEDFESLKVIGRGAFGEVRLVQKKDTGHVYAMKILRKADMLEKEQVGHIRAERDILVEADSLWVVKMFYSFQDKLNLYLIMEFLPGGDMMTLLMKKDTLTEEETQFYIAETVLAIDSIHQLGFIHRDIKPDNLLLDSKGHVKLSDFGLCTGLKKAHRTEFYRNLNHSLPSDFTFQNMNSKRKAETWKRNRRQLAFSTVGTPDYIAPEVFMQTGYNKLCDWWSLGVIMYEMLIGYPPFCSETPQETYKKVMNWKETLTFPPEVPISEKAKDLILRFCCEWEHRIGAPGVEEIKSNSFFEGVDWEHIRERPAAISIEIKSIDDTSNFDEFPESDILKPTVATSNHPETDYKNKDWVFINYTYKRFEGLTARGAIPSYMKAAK

Turning to `c1ccc2c(c1)Sc1ccccc1N2CCN1CCOCC1` [J54], the remaining binding was 86% at PRKG1; 100% on BMX; 100% on EPHB1; 23% on TLK2; 97% at DAPK2; 82% on JNK1. In addition, the remaining binding came to 79% at ULK3; 100% on NDR1; 88% at DDR2; 100% at HIPK2; 92% on FAK; 98% at PIK3CA(M1043I). Also, the remaining binding is 96% on PIK3C2B; 100% on IRAK4; 98% on PRKCI; 100% on STK33; 100% at LTK; 54% on DYRK1B. Further, the “Kinomescan SCANMAX panel at 15 μM” value at TTK is “little inhibition of all other kinases with the exception of TTK”.
